Three compounds from ChEMBL document CHEMBL5316381, “Discovery of [1,2,3]Triazolo[4,5-c]quinoline Derivatives as a New Class of Ataxia-Telangiectasia Mutated Kinase Inhibitors” (ACS Med Chem Lett, 2023) can be followed below.

Broadly, the IC50 is the concentration at which inhibition is half-maximal.

Experiment [1] has as its system SW-620. The experiment can be described thus: Radiosensitizing activity against human SW620 cells assessed as reduction in colony formation at 9 nM incubated after 14 days in the presence of 3 Gy irradiation by crystal violet staining based analysis. Format: functional, cell-based. The following applies: time 14.0 day.
Experiment [2] has as its system SW-620. The experiment can be described thus: Antiproliferative activity against human SW620 cells assessed as reduction in colony formation at 27 nM measured after 14 days by crystal violet staining based microscopic analysis. Format: functional, cell-based. The following applies: time 14.0 day.
Experiment [3] addresses Serine/threonine-protein kinase Chk2 (Homo sapiens) (UniProt O96017). Description: Inhibition of Chk2 phosphorylation in human SW620 cells with IR-induced DNA damage assessed as fold change in phosphorylated Chk2 protein level at 3 nM in the presence of 1.5 Gy irradiation by Western blot analysis relative to control. The experiment is classed as cell-based.
The target is the same in experiment [4]. The experiment can be described thus: Inhibition of Chk2 phosphorylation in human SW620 cells with IR-induced DNA damage assessed as fold change in phosphorylated Chk2 protein level at 3 nM in the presence of 3 Gy irradiation by Western blot analysis relative to control. Format: cell-based.
Experiment [5] deals with T1, Serine-protein kinase ATM (Homo sapiens, UniProt Q13315). The experiment can be described thus: Inhibition of ATM phosphorylation in human SW620 cells with IR-induced DNA damage assessed as fold change in phosphorylated ATM protein level at 83 nM in the presence of 3 Gy irradiation by Western blot analysis relative to control. The experiment is classed as cell-based. (In western blotting, separated proteins are transferred to a membrane and probed.)
T1 sequence (Q13315 whole entry): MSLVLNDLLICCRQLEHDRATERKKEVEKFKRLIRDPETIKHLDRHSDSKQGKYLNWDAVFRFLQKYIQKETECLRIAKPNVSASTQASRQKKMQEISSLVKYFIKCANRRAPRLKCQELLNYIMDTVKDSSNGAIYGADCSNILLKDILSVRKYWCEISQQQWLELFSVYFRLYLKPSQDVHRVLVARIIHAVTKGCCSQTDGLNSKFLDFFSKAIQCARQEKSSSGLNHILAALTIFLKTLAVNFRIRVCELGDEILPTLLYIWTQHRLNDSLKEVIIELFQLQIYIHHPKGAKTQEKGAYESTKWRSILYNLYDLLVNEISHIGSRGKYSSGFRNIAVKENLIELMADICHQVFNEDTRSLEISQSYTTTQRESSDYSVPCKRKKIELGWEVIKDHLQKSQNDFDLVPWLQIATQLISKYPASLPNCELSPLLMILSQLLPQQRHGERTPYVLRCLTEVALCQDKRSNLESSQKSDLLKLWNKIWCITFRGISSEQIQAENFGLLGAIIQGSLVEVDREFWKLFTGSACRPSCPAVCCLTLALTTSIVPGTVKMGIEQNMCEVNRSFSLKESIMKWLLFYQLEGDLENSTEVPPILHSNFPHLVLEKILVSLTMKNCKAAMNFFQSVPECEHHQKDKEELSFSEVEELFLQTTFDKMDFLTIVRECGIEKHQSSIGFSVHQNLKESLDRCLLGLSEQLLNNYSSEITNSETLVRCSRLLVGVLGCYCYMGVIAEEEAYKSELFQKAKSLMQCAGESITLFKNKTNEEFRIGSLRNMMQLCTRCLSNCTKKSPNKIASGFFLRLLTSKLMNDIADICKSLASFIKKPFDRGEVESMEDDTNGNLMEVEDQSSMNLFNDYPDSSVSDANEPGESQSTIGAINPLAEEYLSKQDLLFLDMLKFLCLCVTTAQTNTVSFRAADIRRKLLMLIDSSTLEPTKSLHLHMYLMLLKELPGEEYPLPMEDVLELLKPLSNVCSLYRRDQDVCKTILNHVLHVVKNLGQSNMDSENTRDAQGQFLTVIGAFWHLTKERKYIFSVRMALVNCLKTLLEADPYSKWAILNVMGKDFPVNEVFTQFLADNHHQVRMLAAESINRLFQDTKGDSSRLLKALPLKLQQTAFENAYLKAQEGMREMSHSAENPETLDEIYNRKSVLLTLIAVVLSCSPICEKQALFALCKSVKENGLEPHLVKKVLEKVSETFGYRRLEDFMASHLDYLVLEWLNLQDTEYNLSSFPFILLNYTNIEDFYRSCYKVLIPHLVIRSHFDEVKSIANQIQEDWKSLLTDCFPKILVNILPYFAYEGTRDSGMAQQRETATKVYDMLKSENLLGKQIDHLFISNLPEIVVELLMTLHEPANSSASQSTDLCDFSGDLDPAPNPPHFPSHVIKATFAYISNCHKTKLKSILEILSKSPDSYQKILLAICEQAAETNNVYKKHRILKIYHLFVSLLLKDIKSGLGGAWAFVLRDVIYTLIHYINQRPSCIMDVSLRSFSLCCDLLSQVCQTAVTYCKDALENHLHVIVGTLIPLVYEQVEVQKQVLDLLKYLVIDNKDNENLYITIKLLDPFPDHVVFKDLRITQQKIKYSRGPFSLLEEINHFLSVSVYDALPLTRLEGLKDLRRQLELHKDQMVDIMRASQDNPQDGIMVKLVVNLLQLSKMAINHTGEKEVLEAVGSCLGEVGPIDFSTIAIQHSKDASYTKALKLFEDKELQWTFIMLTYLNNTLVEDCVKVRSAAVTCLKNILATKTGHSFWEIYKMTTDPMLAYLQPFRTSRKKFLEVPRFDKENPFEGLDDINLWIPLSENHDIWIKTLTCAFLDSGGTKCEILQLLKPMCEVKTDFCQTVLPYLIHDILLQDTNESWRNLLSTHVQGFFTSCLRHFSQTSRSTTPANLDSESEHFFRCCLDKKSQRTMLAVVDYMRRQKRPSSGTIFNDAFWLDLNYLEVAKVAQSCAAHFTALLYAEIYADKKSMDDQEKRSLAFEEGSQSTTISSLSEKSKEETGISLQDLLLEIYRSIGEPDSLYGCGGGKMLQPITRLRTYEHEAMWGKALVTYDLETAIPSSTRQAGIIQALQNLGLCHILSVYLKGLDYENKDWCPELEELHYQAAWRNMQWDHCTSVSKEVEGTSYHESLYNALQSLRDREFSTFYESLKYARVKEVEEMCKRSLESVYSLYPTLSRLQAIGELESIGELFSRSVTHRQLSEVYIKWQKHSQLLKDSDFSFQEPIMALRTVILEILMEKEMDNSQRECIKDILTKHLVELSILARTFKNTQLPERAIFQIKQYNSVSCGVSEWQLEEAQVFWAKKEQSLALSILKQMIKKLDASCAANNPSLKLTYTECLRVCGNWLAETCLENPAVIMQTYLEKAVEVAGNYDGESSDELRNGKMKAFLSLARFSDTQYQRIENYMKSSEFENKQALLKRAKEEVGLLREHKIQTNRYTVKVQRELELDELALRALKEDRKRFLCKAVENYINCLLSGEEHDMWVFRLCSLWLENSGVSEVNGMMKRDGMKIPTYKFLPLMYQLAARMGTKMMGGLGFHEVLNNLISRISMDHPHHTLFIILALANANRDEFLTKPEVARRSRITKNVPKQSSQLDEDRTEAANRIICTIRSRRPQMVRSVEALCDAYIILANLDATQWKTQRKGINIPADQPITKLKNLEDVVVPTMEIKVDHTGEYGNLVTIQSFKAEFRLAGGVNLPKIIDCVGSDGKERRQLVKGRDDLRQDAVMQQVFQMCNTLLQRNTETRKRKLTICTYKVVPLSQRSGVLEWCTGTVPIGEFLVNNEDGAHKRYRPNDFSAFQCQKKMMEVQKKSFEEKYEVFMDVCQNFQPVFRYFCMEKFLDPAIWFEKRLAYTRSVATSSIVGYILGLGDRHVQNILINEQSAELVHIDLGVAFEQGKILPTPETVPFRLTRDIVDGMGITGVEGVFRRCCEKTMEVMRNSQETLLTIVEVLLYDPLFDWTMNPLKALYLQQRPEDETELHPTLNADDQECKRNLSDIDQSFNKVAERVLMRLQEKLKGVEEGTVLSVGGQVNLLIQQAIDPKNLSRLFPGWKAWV

Experiment [6] addresses Serine/threonine-protein kinase Chk2 (Homo sapiens) (UniProt O96017). Description: Inhibition of CPT-11 induced Chk2 phosphorylation in human SW620 cells assessed as fold change in phosphorylated chk2 protein level at 3 nM by SDS-PAGE based Western blot analysis relative to control. The experiment is classed as cell-based.
For experiment [7] the target is unchanged. The experiment can be described thus: Inhibition of Chk2 phosphorylation in human SW620 cells with IR-induced DNA damage assessed as fold change in phosphorylated Chk2 protein level at 250 nM in the presence of 3 Gy irradiation by Western blot analysis relative to control. Format: cell-based.
For experiment [8] the target is unchanged. Description: Inhibition of Chk2 phosphorylation in human SW620 cells with IR-induced DNA damage assessed as fold change in phosphorylated Chk2 protein level at 250 nM in the presence of 1.5 Gy irradiation by Western blot analysis relative to control. Format: cell-based.
Experiment [9] relates to SW-620. The experiment can be described thus: Radiosensitizing activity against human SW620 cells assessed as reduction in colony formation at 9 nM incubated after 14 days in the presence of 1.5 Gy irradiation by crystal violet staining based analysis. Format: functional, cell-based. The conditions noted are these: time 14.0 day.
Experiment [10] deals with Serine/threonine-protein kinase Chk2 (Homo sapiens) (UniProt O96017). The experiment can be described thus: Inhibition of CPT-11 induced Chk2 phosphorylation in human SW620 cells by SDS-PAGE based Westernblot analysis. Format: cell-based.
Sequence of Serine/threonine-protein kinase Chk2 (Homo sapiens) (O96017 whole entry): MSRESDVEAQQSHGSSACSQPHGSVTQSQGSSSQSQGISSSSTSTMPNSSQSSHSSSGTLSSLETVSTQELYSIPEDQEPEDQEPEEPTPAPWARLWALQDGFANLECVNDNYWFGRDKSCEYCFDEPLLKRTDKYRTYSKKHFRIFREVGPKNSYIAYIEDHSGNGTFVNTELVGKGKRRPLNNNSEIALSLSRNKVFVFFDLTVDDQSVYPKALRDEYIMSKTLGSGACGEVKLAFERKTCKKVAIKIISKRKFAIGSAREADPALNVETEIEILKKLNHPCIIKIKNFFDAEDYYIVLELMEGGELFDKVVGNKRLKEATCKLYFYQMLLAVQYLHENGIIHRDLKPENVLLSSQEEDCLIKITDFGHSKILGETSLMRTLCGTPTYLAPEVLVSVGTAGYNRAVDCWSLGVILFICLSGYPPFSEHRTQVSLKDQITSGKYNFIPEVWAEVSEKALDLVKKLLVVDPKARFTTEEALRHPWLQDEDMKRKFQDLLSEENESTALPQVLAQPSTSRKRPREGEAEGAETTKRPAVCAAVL
Experiment [11] shares this target. Description: Inhibition of Chk2 phosphorylation in human SW620 cells with IR-induced DNA damage assessed as fold change in phosphorylated Chk2 protein level at 27 nM in the presence of 1.5 Gy irradiation by Western blot analysis relative to control. The experiment is classed as cell-based.
Experiment [12] addresses T1, Serine-protein kinase ATM. Description: Inhibition of ATM phosphorylation in human SW620 cells with IR-induced DNA damage assessed as fold change in phosphorylated ATM protein level at 3 nM in the presence of 3 Gy irradiation by Western blot analysis relative to control. The experiment is classed as cell-based.
The subject of experiment [13] is SW-620. The experiment can be described thus: Radiosensitizing activity against human SW620 cells assessed as reduction in colony formation at 27 nM incubated after 14 days in the presence of 1.5 Gy irradiation by crystal violet staining based analysis. The experiment is classed as functional, cell-based. The conditions noted are these: time 14.0 day.
For experiment [14], the target named is Serine/threonine-protein kinase Chk2 (Homo sapiens) (UniProt O96017). Description: Inhibition of CPT-11 induced Chk2 phosphorylation in human SW620 cells assessed as fold change in phosphorylated chk2 protein level at 30 nM by SDS-PAGE based Western blot analysis relative to control. Format: cell-based.
Experiment [15] shares this target. Description: Inhibition of Chk2 phosphorylation in human SW620 cells with IR-induced DNA damage assessed as fold change in phosphorylated Chk2 protein level at 83 nM in the presence of 1.5 Gy irradiation by Western blot analysis relative to control. Format: cell-based.
The target is the same in experiment [16]. The experiment can be described thus: Inhibition of CPT-11 induced Chk2 phosphorylation in human SW620 cells assessed as fold change in phosphorylated chk2 protein level at 1 nM by SDS-PAGE based Western blot analysis relative to control. Format: cell-based.
Experiment [17] has the same target. The experiment can be described thus: Inhibition of Chk2 phosphorylation in human SW620 cells with IR-induced DNA damage assessed as fold change in phosphorylated Chk2 protein level at 27 nM in the presence of 3 Gy irradiation by Western blot analysis relative to control. Format: cell-based.
The target in experiment [18] is T1, Serine-protein kinase ATM. The experiment can be described thus: Inhibition of ATM phosphorylation in human SW620 cells with IR-induced DNA damage assessed as fold change in phosphorylated ATM protein level at 250 nM in the presence of 3 Gy irradiation by Western blot analysis relative to control. Format: cell-based.
For experiment [19], the target named is Serine/threonine-protein kinase Chk2 (Homo sapiens) (UniProt O96017). Description: Inhibition of CPT-11 induced Chk2 phosphorylation in human SW620 cells assessed as fold change in phosphorylated chk2 protein level at 10 nM by SDS-PAGE based Western blot analysis relative to control. The experiment is classed as cell-based.
The target is the same in experiment [20]. The experiment can be described thus: Inhibition of Chk2 phosphorylation in human SW620 cells with IR-induced DNA damage assessed as fold change in phosphorylated Chk2 protein level at 9 nM in the presence of 3 Gy irradiation by Western blot analysis relative to control. Format: cell-based.
For experiment [21], the system named is SW-620. The experiment can be described thus: Radiosensitizing activity against human SW620 cells assessed as reduction in colony formation at 27 nM incubated after 14 days in the presence of 3 Gy irradiation by crystal violet staining based analysis. Format: functional, cell-based. The conditions noted are these: time 14.0 day.
Experiment [22] addresses Serine/threonine-protein kinase Chk2 (Homo sapiens) (UniProt O96017). Description: Inhibition of Chk2 phosphorylation in human SW620 cells with IR-induced DNA damage assessed as fold change in phosphorylated Chk2 protein level at 83 nM in the presence of 3 Gy irradiation by Western blot analysis relative to control. Format: cell-based.
The target of experiment [23] is T1, Serine-protein kinase ATM. Description: Inhibition of ATM phosphorylation in human SW620 cells with IR-induced DNA damage assessed as fold change in phosphorylated ATM protein level at 9 nM in the presence of 3 Gy irradiation by Western blot analysis relative to control. The experiment is classed as cell-based.
Experiment [24] concerns the target Serine/threonine-protein kinase Chk2 (Homo sapiens) (UniProt O96017). Description: Inhibition of Chk2 phosphorylation in human SW620 cells with IR-induced DNA damage assessed as fold change in phosphorylated Chk2 protein level at 9 nM in the presence of 1.5 Gy irradiation by Western blot analysis relative to control. Format: cell-based.
The test system of experiment [25] is SW-620. Description: Antiproliferative activity against human SW620 cells assessed as reduction in colony formation at 9 nM measured after 14 days by crystal violet staining based microscopic analysis. The experiment is classed as functional, cell-based. The conditions noted are these: time 14.0 day.
In experiment [26] the target is T1, Serine-protein kinase ATM. The experiment can be described thus: Inhibition of ATM phosphorylation in human SW620 cells with IR-induced DNA damage assessed as fold change in phosphorylated ATM protein level at 27 nM in the presence of 3 Gy irradiation by Western blot analysis relative to control. The experiment is classed as cell-based.
The subject of experiment [27] is SW-620. The experiment can be described thus: Cell cycle arrest in human SW620 cells assessed as accumulation of cells at G2/M phase at 1 uM incubated for 24 hrs by PI staining based flow cytometric analysis. The experiment is classed as functional. In general terms: A flow cytometer gives signals particle by particle.
Experiment [28] has as its system SW-620. Description: Induction of apoptosis in human SW620 cells assessed as viable cells at 1 uM measured after 72 hrs by Annexin V-FITC staining based flow cytometric analysis (reference value: 87.36%). The experiment is classed as functional. The following applies: read-out: Activity.
Experiment [29] concerns SW-620. Description: Induction of apoptosis in human SW620 cells assessed as late apoptotic cells at 1 uM measured after 72 hrs by Annexin V-FITC staining based flow cytometric analysis (reference value: 5.75%). The experiment is classed as functional.
Experiment [30] concerns the target T1, Serine-protein kinase ATM. The experiment can be described thus: Inhibition of ATM in human SW620 cells assessed as increase in gamma H2AX foci at 1 uM incubated for 24 hrs by confocal microscopic analysis. The experiment is classed as cell-based.
In experiment [31] the test system is SW-620. Description: Induction of apoptosis in human SW620 cells assessed as necrotic cells at 1 uM measured after 72 hrs by Annexin V-FITC staining based flow cytometric analysis (reference value: 5.83%). The experiment is classed as functional.
For experiment [32], the system named is SW-620. Description: Induction of apoptosis in human SW620 cells assessed as early apoptotic cells at 1 uM measured after 72 hrs by Annexin V-FITC staining based flow cytometric analysis (reference value: 1.06%). The experiment is classed as functional.
Experiment [33] has as its system SW-620. The experiment can be described thus: Anticancer activity against human SW620 cells assessed as reduction in cell viability incubated for 5 days by MTT assay. Format: functional, cell-based. The following applies: SW-620, 120 h. (Tetrazolium assays rely on reduction of a dye to a coloured formazan, in cell work by metabolically active cells.)
A further experiment concerns HCT-116. Description: Anticancer activity against human HCT-116 cells assessed as reduction in cell viability incubated for 5 days by MTT assay. The experiment is classed as functional, cell-based. The following applies: HCT-116, 120 h.
Experiment [34] deals with T1, Serine-protein kinase ATM. The experiment can be described thus: Inhibition of ATM (unknown origin) using GST-cMyc-p53 as substrate incubated for 30 mins in presence of Mg/ATP mix by HTRF-based analysis.

Activity calls are given as the source filed them. No cut-off for these calls is given here.

Regarding `CC(C)n1c(=O)n(C)c2cnc3cc(F)c(-c4ccc(OCCCN5CCCCC5)nc4)cc3c21`, the result in the experiment on SW-620 [1], in the experiment with SW-620 [9], with SW-620 [13] and in the experiment on SW-620 [21] was Active. Moreover, the result in the experiment with SW-620 [2] and with SW-620 [25] was inactive. Also, the fold change (FC) in experiment [3] came to 0.92; in experiment [4], 4.2; in [5] it was 0.8; in experiment [6], 1.9; in [7] it was 0.25; in experiment [8], 0.58. Besides, the fold change (FC) in experiment [11] is 1.2; in [12], 1.36; in [14], 0.56; in [15], 1; in [16], 2.5; in experiment [17], 0.6. The fold change (FC) in experiment [18] is 0.61; in experiment [19], 1.6; in [20], 1.8; in [22] it was 0.35; in experiment [23] it was 1.34; in experiment [24], 0.92. Moreover, the fold change (FC) in experiment [26] was 1. The inhibition entry in experiment [10] is “Dose-Dependent Effect”.
Turning to `CCc1c2c(nc3ccc(OC(=O)N4CCC(N5CCCCC5)CC4)cc13)-c1cc3c(c(=O)n1C2)COC(=O)[C@]3(O)CC` [IRINOTECAN], the result in the experiment with SW-620 [27] was Active. Further, the viability at 1 µM with SW-620 [28] stood at 67.3%. In addition, the Activity turned out to be 21.89% with SW-620 [29], 6.2% in the experiment with SW-620 [31] and 4.61% in the experiment with SW-620 [32]. Also, the inhibition result in experiment [30] was “Active”. For the same compound, the IC50 with SW-620 [33] was determined as 140 nM; with HCT-116, 910 nM.
For the compound `C[C@H](c1ccccc1)n1nnc2cnc3ccc(-c4ccc(F)nc4)cc3c21`, in experiment [34], the IC50 stood at 57 nM.
